The values below come from article PMC7464027, “Design of Curcumin and Flavonoid Derivatives with Acetylcholinesterase and Beta-Secretase Inhibitory Activities Using in Silico Approaches” (Molecules, 2020).

Assay [1] has as its target Acetylcholinesterase (AChE) (Electrophorus electricus, UniProt O42275). Nature of the assay: Ellman's assay with electric eel AChE. It is filed as biochemical.
A further assay has as its target T1, beta-secretase (BACE-1) (Homo sapiens, UniProt P56817).
T1 construct: gene BACE1
Nature of the assay: fluorescent BACE-1 activity detection kit (Sigma-Aldrich). The assay is classed as biochemical.

T1 sequence (P56817 46-457): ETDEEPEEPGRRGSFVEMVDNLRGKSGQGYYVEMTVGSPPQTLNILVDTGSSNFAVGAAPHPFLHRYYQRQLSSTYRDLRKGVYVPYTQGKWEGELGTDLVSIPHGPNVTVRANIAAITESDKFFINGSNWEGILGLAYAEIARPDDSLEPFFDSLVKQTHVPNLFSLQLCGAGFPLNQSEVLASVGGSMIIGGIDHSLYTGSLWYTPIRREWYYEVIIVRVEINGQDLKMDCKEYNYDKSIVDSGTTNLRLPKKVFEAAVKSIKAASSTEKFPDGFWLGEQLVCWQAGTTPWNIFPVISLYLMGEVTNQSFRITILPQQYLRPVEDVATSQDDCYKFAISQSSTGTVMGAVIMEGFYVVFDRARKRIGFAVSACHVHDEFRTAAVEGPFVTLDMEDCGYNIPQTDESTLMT
Sequence of Acetylcholinesterase (AChE) (O42275 24-633): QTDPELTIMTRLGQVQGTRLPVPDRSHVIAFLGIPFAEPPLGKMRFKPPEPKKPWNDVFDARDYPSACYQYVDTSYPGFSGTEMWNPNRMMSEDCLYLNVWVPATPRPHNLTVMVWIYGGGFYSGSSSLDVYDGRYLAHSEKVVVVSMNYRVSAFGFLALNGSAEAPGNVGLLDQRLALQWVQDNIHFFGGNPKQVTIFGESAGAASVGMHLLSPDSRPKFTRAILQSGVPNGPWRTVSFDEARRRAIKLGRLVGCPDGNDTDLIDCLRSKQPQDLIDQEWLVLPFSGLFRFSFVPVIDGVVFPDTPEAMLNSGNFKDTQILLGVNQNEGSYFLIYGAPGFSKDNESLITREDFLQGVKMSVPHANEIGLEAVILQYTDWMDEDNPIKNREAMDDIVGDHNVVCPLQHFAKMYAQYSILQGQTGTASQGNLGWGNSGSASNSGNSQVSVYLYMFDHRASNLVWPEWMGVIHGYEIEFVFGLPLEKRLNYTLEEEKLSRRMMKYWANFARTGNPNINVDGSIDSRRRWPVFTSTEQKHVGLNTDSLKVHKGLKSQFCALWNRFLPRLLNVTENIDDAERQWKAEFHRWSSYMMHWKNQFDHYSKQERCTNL

On to `CCOc1cc(C(=O)O)c(C(=O)CCc2ccccc2)c(N(C)C)c1` [F9, 3-(dimethylamino)-5-ethoxy-2-(3-phenylpropanoyl)benzoic acid], for which the results for the half-maximal inhibitory concentration (IC50) (in assay [1]; against beta-secretase (BACE-1)) were 30 ± 1.24 µM and 1850 ± 330 nM, respectively.
Turning to `CN(C)c1cccc(CCC(=O)c2cc(O)ccc2N(C)C)c1` [F24, 1-(2-(dimethylamino)-5-hydroxyphenyl)-3-(3-(dimethylamino)phenyl)propan-1-one], the IC50 in assay [1] came to 80.5 ± 3.07 µM; on beta-secretase (BACE-1), 3520 ± 770 nM.
